Experiments:
Format in all cases: in vivo
[1] = test system: HIV; design: Linear Regression Higher CO / Linear Regression Lower CO: unit not given here; details: for Linear Regression Higher CO / Linear Regression Lower CO: Definition 2, Overall (whole population); for VIROLOGIC RESPONSE Baseline FC for 80% REDUCTION of response (upper cutoff) / VIROLOGIC RESPONSE 20% REDUCTION (fold change, preliminary VirtualPhenotype Clinical Cutoff) / VIROLOGIC RESPONSE 80% REDUCTION (fold change, preliminary VirtualPhenotype Clinical Cutoff): preliminary linear regression analysis; for VIROLOGIC RESPONSE 20% REDUCTION (fold change, preliminary VirtualPhenotype Clinical Cutoff) / VIROLOGIC RESPONSE 80% REDUCTION (fold change, preliminary VirtualPhenotype Clinical Cutoff): virologic response at 8 weeks
Text: Databases of studies for patients with tenofovir containing regimens and consisting of patient baseline demographic characteristics, clinical outcome results with viral load and resistance data (Fold change), were retrieved and remapped according to a common structure allowing a meta-analysis. The structure consisted of baseline sequence, viral load data set, viral load measurements and sampling dates (for example viral load within 3 months of starting new regimen and viral load assessment 8 and/or 24 weeks after beginning new regimen), CD4+ data set which contains CD4+ counts and sampling dates, resistance data set containing the fold changes to different antivirals and sampling dates; patient data set with patient information such as age, gender, race, treatment history; treatment data set with drug regimens, start and stop dates, doses, formulations, frequency of intake, regimen changes after resistance tests. The structure of such a clinical data base can be seen in FIG. 1a.
The viral load response data includes censored (<400 copies/ml) values. Parameters of the underlying uncensored distribution were estimated by maximum likelihood estimation in SAS (proc lifereg). The viral load response data are corrected for baseline viral load and cPSS.
(§1) The models applied were linear regression, logistic regression, and a classification tree. These models also took into account effects of the concomitant HIV drugs (PSS), baseline viral load (Baseline Log(V1)i) and, optionally, treatment history in order to avoid bias introduced by imbalances of important characteristics. From the models, a prediction of clinical outcome could be made at different levels of the baseline fold change resistance.
In the linear regression model, the proposed equation was the following: LogVL dropi=β0+β1*Baseline Log(V1)i+β2*PSSi+β3*(1/FC)i+ξi where i represented the patient, β0 the intercept, β1, β2 and β3 coefficients indicated the increase in log viral load drop per unit increase of respectively the baseline log VL, the number of sensitive drugs in the background regimen and the inverse of the baseline fold change. ξi was a random error term indicating the deviation of the patient from the value predicted by the model. Interactions between all the factors were evaluated and other baseline characteristics, i.e treatment history, were added if relevant.
When viral load results under the detection limits are obtained, biases could be introduced if the detection limit values are considered when calculating viral load drops and using those in the linear regression model. To avoid this, censoring needed to be taken into account and therefore the PROC LIFEREG facility in the SAS package was employed.
Clinical responses were predicted in the models developed in previous step 2. […] In order to determine the fold changes at which clinically relevant diminished clinical responses can be observed, three definitions of clinical cut-offs were considered:
(§2) The maximum effect was defined as the treatment effect at fold change 1, and the minimum effect was defined as the treatment effect at a very high fold change (i.e. when the curve reached a plateau). The effect range was then the difference between the maximum effect and the minimum effect.

[2] = test system: HIV; experiment: Logistic regression model of probability of success/failure as a function of baseline fold change resistance (clinical cut-offs); details: Definition 2; for lower cutoff, logistic regression / upper cutoff, logistic regression: log baseline VL/background PSS of 5/0
Text: In such a method, Prob of success is preferably calculated by performing a logistic regression analysis using data from a clinical response dataset, wherein Prob of success is modelled according to the following equation: […]
as §1, with “The clinical outcome results (drop in viral load and response rate) were modelled as a function of baseline fold change (FC) as determined by virtual phenotype (see WO01/79540 and WO02/33402; also http://www.vircolab.com). The models” for “The models”
In the logistic regression, the proposed equation was the following: […]
However, by binning the viral load into successes and failures, part of the information of the continuous variable viral load is lost. Estimates are also corrected for covariates as for linear regression.
as §2
The lower and higher cutoffs are defined as the fold change associated with an expected 20% and 80% decrease respectively of the reference activity of the drug within the regimen.

[3] = test system: HIV; design: key to Modelled Lower Cutoff & Confidence Interval / Modelled Upper Cutoff & Confidence Interval: fold change (FC) matching VL drop at 20% and 80% loss of activity; details: for Modelled Lower Cutoff & Confidence Interval / Modelled Upper Cutoff & Confidence Interval: preferred embodiment of linear regression
Text: In a preferred embodiment of the linear regression model, more factors are included in order to obtain a more refined prediction of viral load response. These factors include for example a sensitivity score per drug class in addition to the overall sensitivity score of the background treatment (cPSS), previous exposure to the drug (naïve (Yes/No), naïve to PIs, naïve to NRTI's, etc. . . . ). Furthermore, in the preferred embodiment, the fold change is transformed before inserting the figures into the model. The transformation to the fold change comprises a power-transformation ranging from FC^−3 to FC^1. In addition, a quadratic term in cPSS is preferably added.
The NRTI[naïve] value represents whether the patient is naïve to nucleoside RT inhibitors. If yes, value=1, if no, value=0. The PSS[NRTI} represents the phenotypic sensitivity score for NRTIs, i.e the number of active NRTIs in the background regimen for the patient.
Stage 3: Determine Fold change equivalent to VL drop at 20% and 80% loss of activity by inserting values for VL drop into the above equation and calculating FC. […]

[4] = test system: HIV; details: for Test Data BCO Odds Ratio / Validation Data BCO Odds Ratio: biological cutoffs; for Test Data CCO Odds Ratio / Validation Data CCO Odds Ratio: clinical cutoffs
Text: Further factors which may be taken into account when validating the model are the odds ratios determined using clinical cutoffs compared to those determined using biological cutoffs. These ratios represent the odds of being a responder in the group that is labeled resistant by the cutoffs divided by the odds of being a responder in the group that is labeled sensitive by the cutoffs. In this way it is possible to evaluate how well the cutoffs perform on a drug by drug basis. The further away that the odds ratio is from 1, the stronger the correlation between the resistance class and clinical outcome. The odds ratio as specified above yield numbers smaller than 1 as the odds of being a responder should be smaller in the higher resistance class. Put another way, the probability of response will decrease as the resistance increases. Additionally, if the odds ratio for the CCO is smaller than the odds ratio for the BCO, it can be concluded that the CCO is stronger correlated with clinical outcome and therefore gives a better prediction than the BCO.
(§3) A logistic regression model may be used to determine the odds ratio. The model used is the same as the logistic regression model described above except that the fold change in the model is replaced by the resistance class. The coefficient for the resistance class that is obtained from the model is the log (odds ratio). The advantage of using this model is that the odds ratio estimates can be adjusted for the baseline viral load and the cPSS score of the background regimen.
The columns headed CCO Odds Ratio and BCO Odds Ratio represent the odds of being a responder in the group that is labeled resistance by the cutoffs divided by the odds of being a responder in the group that is labeled sensitive by the cutoffs. For example, if there are four non-responders and one responder in the resistant group, and four responders and two non-responders in the sensitive group, the odds of being a responder in the resistant group is 1:4=0.25 and the odds of being a responder in the sensitive group is 4:2=2. […] The further away that the odds ratio is from 1, the stronger the correlation between the resistance class and clinical outcome.
The separation in groups (resistance/sensitive) can be done based on clinical cutoffs or biological cutoffs. This means that odds ratios based on clinical cutoffs (CCO) and odds ratios based on biological cutoffs (BCO) can be compared. If the odds ratio for the CCO is smaller than the odds ratio for the BCO, it can be concluded that the CCO gives a better prediction than the BCO.
as §3, with “In practice, a” for “A”, “is” for “may be”, “similar to” for “the same as the”, “earlier” for “above”, “regimen. […] In this case, a larger odds ratio indicates a stronger correlation with clinical outcome.” for “regimen.”

[5] = Subgroup 1: PSS = 2, baseline Log (VL) = 4
[6] = Definition 1, log baseline viral load of 5, no active drugs in addition
[7] = Log(BaselineVL)=4, cPSS=2, PSS[NRTI]=1, NRTI[naïve]=0
[8] = definition 2, Log(BaselineVL)=4, reference fold changes 0.9 and 3, cPSS=2, PSS[NRTI]=1, NRTI[naïve]=0
[9] = Subgroup 3: PSS = 2, baseline Log (VL) = 5

| Compound | clinical cutoff for 80% reduced response (upper clinical cutoff) ([1]; definition 2, after 8 weeks) | VIROLOGIC RESPONSE Baseline FC for 80% REDUCTION of response (upper cutoff) ([1]; definition 2) | VIROLOGIC RESPONSE 20% REDUCTION (fold change, preliminary VirtualPhenotype Clinical Cutoff) [1] | VIROLOGIC RESPONSE 80% REDUCTION (fold change, preliminary VirtualPhenotype Clinical Cutoff) [1] | Modelled Lower Cutoff & Confidence Interval [3] | Modelled Upper Cutoff & Confidence Interval [3] | Test Data BCO Odds Ratio [4] | Test Data CCO Odds Ratio [4] | Validation Data BCO Odds Ratio [4] | Validation Data CCO Odds Ratio [4] | also measured |
| --- | --- | --- | --- | --- | --- | --- | --- | --- | --- | --- | --- |
| CC(C)(C)NC(=O)[C@@H]1CN(Cc2cccnc2)CCN1C[C@@H](O)C[C@@H](Cc1ccccc1)C(=O)N[C@H]1c2ccccc2C[C@H]1O [IDV, indinavir] | 3.4 | – | – | – | – | – | – | – | – | – | – |
| Saquinavir/r [SQV/r] | – | 12 | 1.6 | 12 | 1.1 | 12.0 | 0.249 | 0.165 | 0.080 | 0.054 | Linear Regression Higher CO [1]: 12.3; Linear Regression Lower CO [1]: 1.6; Logistic Regression Higher CO [2, 5]: 13.2; Logistic Regression Lower CO [2, 5]: 1.7; lower cutoff, logistic regression [2]: 1.7; upper cutoff, logistic regression [2]: 12.9 |
| Cc1ccnc2c1NC(=O)c1cccnc1N2C1CC1 [NVP, neviripine] | – | – | – | – | 1.5 | 3.2 | 0.290 | 0.282 | 0.054 | 0.054 | – |
| Cc1cn([C@H]2C=C[C@@H](CO)O2)c(=O)[nH]c1=O [D4T, stavudine] | – | – | – | – | – | – | – | – | – | – | fold change at predicted viral load drop of −0.2 logs [1, 6]: 4.0; fold change at predicted viral load drop of −0.6 logs [1, 6]: 2.6; predicted viral load drop for any fold change ([1]; Definition 1, log baseline viral load of 5, two active drugs in addition): more than 0.6 log copies/mL; Fold change equivalent to VL drop at 20% loss of activity [3, 7]: 1.08; Fold change equivalent to VL drop at 80% loss of activity [3, 7]: 2.18; VL drop when drug has lost 20% of its activity [3, 7]: −2.76; VL drop when drug has lost 80% of its activity [3, 7]: −2.21; modelled lower clinical cutoff (CCO) [3, 8]: 1.1; modelled upper clinical cutoff (CCO) [3, 8]: 2.2; VL drop at the lower reference FC (drug is fully active) ([3]; lower reference fold change=0.9, Log(BaselineVL)=4, cPSS=2, PSS[NRTI]=1, NRTI[naïve]=0): −2.94; VL drop at the upper reference FC (minimal activity of the drug) ([3]; upper reference fold change=3, Log(BaselineVL)=4, cPSS=2, PSS[NRTI]=1, NRTI[naïve]=0): −2.03 |
| CC(C)CN(C[C@@H](O)[C@H](Cc1ccccc1)NC(=O)O[C@H]1CCOC1)S(=O)(=O)c1ccc(N)cc1 [APV, amprenavir] | 3.4 | – | – | – | – | – | – | – | – | – | – |
| Indinavir/r [IDV/r] | – | 25 | 3.5 | 25 | 4.1 | 21.2 | 0.122 | 0.027 | 0.038 | 0.012 | – |
| Lopinavir/r [LPV/r] | – | 56 | 6.9 | 56 | 10.3 | 61.6 | 0.240 | 0.074 | 0.277 | 0.002 | Linear Regression Higher CO [1]: 69; Linear Regression Lower CO [1]: 8; Logistic Regression Higher CO [2, 5]: 64; Logistic Regression Lower CO [2, 5]: 11; Logistic Regression Higher CO [2, 9]: 58; Logistic Regression Lower CO [2, 9]: 9; lower cutoff, logistic regression [2]: 10; upper cutoff, logistic regression [2]: 60 |
| amprenavir/r [APV/r] | 6.8 | 6.8 | 1.5 | 6.8 | 0.9 | 6.5 | 0.053 | 0.005 | – | – | clinical cutoff for 20% reduced response (lower clinical cutoff) ([1]; definition 2, after 8 weeks): 1.5 |
